These results are taken from US8247437B2, “N-hydroxyamide derivatives and use thereof” (Merck Serono SA, priority 2004, dated 2012).

Like-named read-outs stand apart in the source and are kept apart here. Some results are limits rather than exact numbers.

What all share (format): biochemical
For test [1], the target named is T1, collagenase (MMP-1) (Homo sapiens, UniProt P03956).
T1 sequence (P03956 100-469): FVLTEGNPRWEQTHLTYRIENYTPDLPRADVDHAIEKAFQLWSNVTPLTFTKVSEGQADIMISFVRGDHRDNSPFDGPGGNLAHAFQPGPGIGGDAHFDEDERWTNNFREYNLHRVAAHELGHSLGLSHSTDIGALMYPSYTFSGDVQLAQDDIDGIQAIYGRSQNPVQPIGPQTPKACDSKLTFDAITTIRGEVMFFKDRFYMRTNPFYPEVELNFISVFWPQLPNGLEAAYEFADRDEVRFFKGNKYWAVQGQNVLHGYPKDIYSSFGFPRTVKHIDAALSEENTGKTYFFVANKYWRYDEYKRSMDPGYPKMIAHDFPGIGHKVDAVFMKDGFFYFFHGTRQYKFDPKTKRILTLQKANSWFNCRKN
The test can be described thus: MMP-1 enzyme inhibition assay (coumarin-labelled peptide substrate McaPLGLDpaAR). As to conditions: read-out: MMP-1 IC50. The method, then: (§1) Stock solutions were made up as follows: Assay Butter: 100 mM Tris-HCl pH 7.6 is containing 100 mM NaCl, 10 mM CaCl2, and 0.05% Brij 35.
(§2) Substrate: 0.4 mM McaPLGLDpaAR (from Bachem) (0.437 mg/ml) stock solution in 100% DMSO (stored at −20° C.). Dilute to 8 μM in assay butter.
(§3) Enzyme: Recombinant human 92 kDa gelatinase (MMP-9; APMA (4-aminophenyl mercuric acetate)-activated if necessary) appropriately diluted in assay butter.
(§4) Test Compounds were prepared initially as 10 mM compound solution in 100% DMSO, diluted to 1 mM in 100% DMSO, then serially diluted 3-fold in 100% DMSO across columns 1-10 of a 96-well microtitre plate Assay concentration range, 100 μM (column 1) to 5.1 nM (column 10).
(§5) The assay was performed in a total volume of 100 μL per well in 96-well microfilm plates. Activated enzyme (20 μL) was added to the wells followed by 20 μL of assay butter. Appropriate concentrations of test compounds dissolved in 10 μL of DMSO were then added followed by 50 μL of McaPLGLDpaAR (8 μM, prepared by dilution of DMSO stock in assay butter). For each as say ten concentrations of test compound were examined in duplicate. Control wells lack either enzyme or test compound. The reactions were incubated at 37° C. for 2 hours. The fluorescence at 405 nm was measured immediately with an SLT Fluostar fluorometer (SL T Labinstruments GmbH, Grödig, Austria) using 320 nm excitation, without stopping the reaction.
(§6) The effect of the test compound was determined from the dose response curve generated by the 10 duplicate concentrations of inhibitor. The IC50 (the concentration of compound required to give a 50% decrease in enzyme activity) was obtained by fitting data to the equation, Y=a+((b−a)/(1+(c/X)^d)). (Y=inhibition achieved for a particular dose; X=the dose in nM; a=minimum y or zero % inhibition; b=maximum y or 100% inhibition; c=is the IC50; d=is the slope). The result was rounded to one significant figure.
Compounds of the invention were tested for inhibitory activity against collagenase (MMP-1) in an assay using a coumarin-labelled peptide substrate, (7-methoxycoumarin-4-yl)acetyl-Pro-Leu-Gly-Leu-(3-[2,4-dinitrophenyl]-L-2,3diaminopropionyl)-Ala-Arg-NH2 (Mca PLGLDpaAR) (Knight et al, 1992, above). The protocol for this assay was as described for the MMP-9 assay above.

Test [2] concerns the target T2, gelatinase A (MMP-2) (Homo sapiens, UniProt P08253).
T2 sequence (P08253 110-660): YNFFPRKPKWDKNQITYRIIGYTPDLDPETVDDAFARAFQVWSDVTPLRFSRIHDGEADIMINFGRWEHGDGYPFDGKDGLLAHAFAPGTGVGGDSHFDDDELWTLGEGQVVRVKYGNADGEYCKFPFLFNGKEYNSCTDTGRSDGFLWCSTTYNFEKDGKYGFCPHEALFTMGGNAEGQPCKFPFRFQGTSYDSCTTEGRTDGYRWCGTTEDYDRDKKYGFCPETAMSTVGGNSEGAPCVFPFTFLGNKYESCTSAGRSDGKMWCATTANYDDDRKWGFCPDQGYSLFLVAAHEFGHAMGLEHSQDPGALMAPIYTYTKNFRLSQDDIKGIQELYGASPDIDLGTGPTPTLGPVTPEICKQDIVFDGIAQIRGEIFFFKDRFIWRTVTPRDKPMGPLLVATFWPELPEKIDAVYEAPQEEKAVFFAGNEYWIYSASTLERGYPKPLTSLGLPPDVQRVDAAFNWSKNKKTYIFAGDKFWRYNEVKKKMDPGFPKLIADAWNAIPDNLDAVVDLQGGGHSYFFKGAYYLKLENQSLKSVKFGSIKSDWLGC
Description: MMP-2 enzyme inhibition assay (coumarin-labelled peptide substrate McaPLGLDpaAR). The settings on record: read-out: MMP-2 IC50. Here is the method: as §1, §2, §3, §4, §5, §6
Compounds of the invention were tested for inhibitory activity against gelatinase A (MMP-2) in an assay using a coumarin-labelled peptide substrate, (7-methoxycoumarin-4-yl)acetyl-Pro-Leu-Gly-Leu-(3-[2,4-dinitrophenyl]-L-2,3diaminopropionyl)-Ala-Arg-NH2 (Mca PLGLDpaAR) (Knight et al, 1992, above). The protocol for this assay was as described for the MMP-9 assay above.

The target of test [3] is 92 kDa gelatinase (MMP-9) (Homo sapiens, UniProt P14780). Description: MMP-9 enzyme inhibition assay (coumarin-labeled peptide substrate McaPLGLDpaAR). As to conditions: read-out: MMP-9 IC50. Here is the method:
Compounds of the invention were tested for inhibitory activity against 92 kDa gelatinase (MMP-9) in an assay using a coumarin-labeled peptide substrate, (7-methoxycoumarin-4-yl)acetyl-Pro-Leu-Gly-Leu-(3-[2,4-dinitrophenyl]-L-2,3diaminopropionyl)-Ala-Arg-NH2 (McaPLGLDpaAR) (Knight et al, FEBS Lett. 1992; 263-266).
as §1, §2, §3, §4, §5, §6

Test [4] has as its target metalloelastase (MMP-12) (Homo sapiens, UniProt P39900). The test can be described thus: MMP-12 enzyme inhibition assay (coumarin-labelled peptide substrate McaPLGLDpaAR). The settings on record: read-out: MMP-12 IC50. The method, then:
as §1, §2, §3, §4, §5, §6
Compounds of the invention were tested for inhibitory activity against metalloelastase (MMP-12) in an assay using a coumarin-labelled peptide substrate, (7-methoxycoumarin-4-yl)acetyl-Pro-Leu-Gly-Leu-(3-[2,4-dinitrophenyl]-L-2,3-diaminopropionyl)-Ala-Arg-NH2 (McaPLGLDpaAR) (Knight et al, 1992, above). The protocol for this assay was as described for the MMP-9 assay above.

Setting [5] is: Table 1, compounds of Formula (I).
Where [6] appears, read: Table 2, compounds of Formula (VI).

Sequence of metalloelastase (MMP-12) (P39900 106-470): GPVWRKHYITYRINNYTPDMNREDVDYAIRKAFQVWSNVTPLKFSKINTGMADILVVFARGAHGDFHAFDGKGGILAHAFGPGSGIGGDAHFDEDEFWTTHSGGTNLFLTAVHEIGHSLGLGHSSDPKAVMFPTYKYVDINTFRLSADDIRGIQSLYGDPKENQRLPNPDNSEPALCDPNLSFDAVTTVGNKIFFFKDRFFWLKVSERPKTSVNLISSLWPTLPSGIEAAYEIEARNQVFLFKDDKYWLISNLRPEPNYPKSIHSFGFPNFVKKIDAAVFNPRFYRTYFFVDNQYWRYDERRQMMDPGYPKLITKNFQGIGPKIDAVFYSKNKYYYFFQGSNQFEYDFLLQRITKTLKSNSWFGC
Sequence of 92 kDa gelatinase (MMP-9) (P14780 107-707 limits assumed): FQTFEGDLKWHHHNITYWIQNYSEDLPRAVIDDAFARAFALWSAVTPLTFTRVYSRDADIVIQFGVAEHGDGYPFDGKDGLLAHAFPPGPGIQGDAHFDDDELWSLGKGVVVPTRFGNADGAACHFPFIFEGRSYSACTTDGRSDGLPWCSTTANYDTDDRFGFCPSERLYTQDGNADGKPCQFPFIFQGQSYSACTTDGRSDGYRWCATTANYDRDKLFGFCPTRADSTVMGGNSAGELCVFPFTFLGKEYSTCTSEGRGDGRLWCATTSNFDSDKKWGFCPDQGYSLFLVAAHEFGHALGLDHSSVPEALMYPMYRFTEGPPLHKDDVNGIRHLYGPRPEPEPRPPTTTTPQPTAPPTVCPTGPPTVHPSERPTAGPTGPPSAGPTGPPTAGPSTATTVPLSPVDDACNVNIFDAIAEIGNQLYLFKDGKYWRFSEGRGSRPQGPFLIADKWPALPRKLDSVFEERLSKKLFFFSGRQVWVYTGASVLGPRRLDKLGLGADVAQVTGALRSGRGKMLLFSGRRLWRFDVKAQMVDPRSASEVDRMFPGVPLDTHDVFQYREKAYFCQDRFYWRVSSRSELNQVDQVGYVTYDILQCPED

With `COc1ccc(N2CCN(C(=O)[C@@H](CC(C)C)[C@@H](O)C(=O)NO)CC2)cc1` [Example 14, (2R,3S)-N,2-dihydroxy-3-{[4-(4-methoxyphenyl)piperazin-1-yl]carbonyl}-5-methylhexanamide], the IC50 (as a rule, the midpoint of a concentration-inhibition curve) in test [1] (setting [5]) was greater than 5000 nM; in test [2] (setting [5]) it was 89 nM; in test [3] (setting [5]) it was 585 nM; in test [4] (setting [5]) it was 4 nM.

For the compound `CCOc1ccc(CCCC(C(=O)N2CCN(c3ccccc3F)C[C@H]2C)[C@H](O)C(=O)NO)cc1` (mixture of isomers) [Example 9, (2S,3S)-6-(4-ethoxyphenyl)-3-{[(2R)-4-(2-fluorophenyl)-2-methylpiperazin-1-yl]carbonyl}-N,2-dihydroxyhexanamide], the IC50 in test [1] (setting [5]) was greater than 5000 nM; in test [2] (setting [5]) it was 136 nM; in test [3] (setting [5]), 233 nM; in test [4] (setting [5]), 33 nM.

As to `CCOc1ccc(CCC[C@@H](C(=O)N2CCC(Nc3ccc(O)cc3)CC2)[C@H](O)C(=O)NO)cc1` [Example 46, (2S,3R)-6-(4-ethoxyphenyl)-N,2-dihydroxy-3-({4-[(4-hydroxyphenyl)amino]piperidin-1-yl}carbonyl)hexanamide], the IC50 in test [1] (setting [6]) is greater than 5000 nM; in test [2] (setting [6]), 179 nM; in test [3] (setting [6]) it was 133 nM; in test [4] (setting [6]) it was 34 nM.

With `C[C@@H]1CN(c2ccc(OC(F)(F)F)cc2)CCN1C(=O)[C@@H](CC1CCCC1)[C@H](O)C(=O)NO` [Example 91, (2S,3S)-3-(cyclopentylmethyl)-N,2-dihydroxy-4-{(2R)-2-methyl-4-[4-(trifluoromethoxy)phenyl]piperazin-1-yl}-4-oxobutanamide], the IC50 was 1150 nM in test [1] (setting [5]), 3 nM in test [2] (setting [5]), 49 nM in test [3] (setting [5]) and less than 1 nM in test [4] (setting [5]).

`CC(C)C[C@H](C(=O)N1CCN(c2ccccn2)CC1)[C@H](O)C(=O)NO` [Example 1, (2S,3S)-N,2-dihydroxy-5-methyl-3-{[4-(2-pyridinyl)-1-piperazinyl]carbonyl}hexanamide]: the IC50 in test [1] (setting [5]) was found to be 418 nM; in test [2] (setting [5]) it was 3 nM; in test [3] (setting [5]), 5 nM; in test [4] (setting [5]), 4 nM.

Regarding `O=C(NO)[C@H](O)[C@H](CCOCc1ccccc1)C(=O)N1CCN(c2ccc(-c3ccccc3)cc2)CC1` [Example 58, 3-[(4-biphenyl-4-ylpiperazin-1-yl)carbonyl]-3,4-dideoxy-1-(hydroxyamino)-5-O-(phenylmethyl)-L-threo-pentose], the IC50 in test [1] (setting [5]) is greater than 5000 nM; in test [2] (setting [5]) it was 38 nM; in test [3] (setting [5]) it was 194 nM; in test [4] (setting [5]), 7 nM.

In the case of `CC(C)C[C@H](C(=O)N1CCN(c2cc(C(F)(F)F)ccn2)C[C@H]1C)[C@H](O)C(=O)NO` [Example 3, (2S,3S)-N,2-dihydroxy-5-methyl-3-({(2R)-2-methyl-4-[4-(trifluoromethyl)pyridin-2-yl]piperazin-1-yl}carbonyl)hexanamide], the IC50 in test [1] (setting [5]) is greater than 5000 nM; in test [2] (setting [5]), 42 nM; in test [3] (setting [5]), 285 nM; in test [4] (setting [5]) it was 31 nM.

As for `CCOc1ccc(CCC[C@@H](C(=O)N2CCC(Oc3ccccn3)CC2)[C@H](O)C(=O)NO)cc1` [Example 22], the IC50 was greater than 5000 nM in test [1] (setting [6]), 47 nM in test [2] (setting [6]), 45 nM in test [3] (setting [6]) and 17 nM in test [4] (setting [6]).

Consider `CC(C)C[C@H](C(=O)N1CCN(c2noc(-c3ccccc3)n2)CC1)[C@@H](O)C(=O)NO` [Example 56, (2R,3S)-N,2-dihydroxy-5-methyl-3-{[4-(5-phenyl-1,2,4-oxadiazol-3-yl)piperazin-1-yl]-carbonyl}hexanamide], for which the concentration for half-maximal inhibition (IC50) in test [1] (setting [5]) is greater than 5000 nM; in test [2] (setting [5]), 4.8 nM; in test [3] (setting [5]), 41 nM; in test [4] (setting [5]) it was 6 nM.

As to `CC(C)C[C@H](C(=O)N1CCN(c2nc(-c3ccccc3)ns2)CC1)[C@H](O)C(=O)NO` [Example 2, (2S,3S)-N,2-dihydroxy-5-methyl-3-{[4-(3-phenyl-1,2,4-thiadiazol-5-yl)-1-piperazinyl]carbonyl}hexanamide], the IC50 was 876 nM in test [1] (setting [5]), 17 nM in test [2] (setting [5]), 7 nM in test [3] (setting [5]) and 103 nM in test [4] (setting [5]).
